Test systems include NCI/ADR-RES ovarian; MCF7 breast; HS 578T breast; T-47D breast; MDA-MB-231 breast.
Test in all cases: NCI-60 cell line screen, 48 h

Values joined by “and” are separate entries in the source; they are usually repeats but may differ in a detail not shown here. Identical values can stand only once.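 Protocol summary: plate cells (96-well), add compound at 5 concentrations, incubate 48 h, interpolate endpoints linearly. Abbreviation: GI50, concentration required for 50% inhibition of growth. Definition used: TGI = concentration required for complete inhibition of growth.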

With `CCOC(=O)N1CCN(CCCCCOc2ccccc2C2CCCCC2)CC1`, the GI50 in the experiment with NCI/ADR-RES ovarian was 2.05 µM; in the experiment with MCF7 breast, 3.2 µM; in the experiment on HS 578T breast, 12.8 µM; in the experiment with T-47D breast it was 2.35 µM; in the experiment on MDA-MB-231 breast, 5.1 µM. For the same compound, the TGI with NCI/ADR-RES ovarian stood at 5.66 µM; in the experiment on MCF7 breast it was 13.1 µM; in the experiment with HS 578T breast it was 34.8 µM; in the experiment on T-47D breast, 14.4 µM; in the experiment on MDA-MB-231 breast, 21.5 µM.
In the case of `Cc1cc2c(cc1Cl)S/C(=C/C(=O)O)C(Nc1cccc3nsnc13)=NS2(=O)=O`, the GI50 in the experiment with NCI/ADR-RES ovarian was above 40.2 µM; in the experiment on MCF7 breast, 32.7 µM; in the experiment with HS 578T breast it was 30.5 µM; in the experiment on T-47D breast it was above 77.8 µM; with MDA-MB-231 breast, 47.4 µM. Besides, the TGI in the experiment with NCI/ADR-RES ovarian was above 58.9 µM; in the experiment on MCF7 breast it was above 76.2 µM; in the experiment on HS 578T breast it was above 60.7 µM; in the experiment with T-47D breast, above 100 µM; in the experiment with MDA-MB-231 breast, above 69.4 µM.
Turning to `Cc1cc(C)n(C2=NS(=O)(=O)c3ccccc3N2C)n1`, the TGI in the experiment on NCI/ADR-RES ovarian, in the experiment on MCF7 breast, in the experiment on HS 578T breast, in the experiment on T-47D breast and with MDA-MB-231 breast was above 100 µM each time.
For `CC1c2ccccc2N=C2SC(=S)N3CCN=C3N21` (stereo not drawn), the GI50 with NCI/ADR-RES ovarian, with MCF7 breast, in the experiment on T-47D breast and with MDA-MB-231 breast was above 100 µM throughout. Besides, the TGI in the experiment on NCI/ADR-RES ovarian, with MCF7 breast, in the experiment on T-47D breast and with MDA-MB-231 breast was above 100 µM each time.
On to `O=C(c1cccs1)C1NO[N+]([O-])=C1c1cccs1` (stereo not drawn), for which the GI50 is 3.42 µM in the experiment on NCI/ADR-RES ovarian; 4.84 µM with MCF7 breast; 2.82 µM in the experiment with HS 578T breast; 2.2 µM in the experiment with T-47D breast; 11.8 µM in the experiment on MDA-MB-231 breast. The TGI in the experiment with NCI/ADR-RES ovarian turned out to be 18.9 µM; with MCF7 breast it was 16.3 µM; with HS 578T breast, 14.6 µM; with T-47D breast it was 5.09 µM; in the experiment on MDA-MB-231 breast it was 25 µM.
Turning to `Clc1ccc2c(c1)N(c1ncnc3ccc(-c4cnc5[nH]ncc5c4)cc13)CC2`, the GI50 in the experiment on MCF7 breast was 0.228 µM; in the experiment on HS 578T breast, 0.162 µM; in the experiment on T-47D breast, 0.0424 µM; in the experiment with MDA-MB-231 breast, 0.719 µM. The TGI is above 100 µM in the experiment with MCF7 breast, 0.651 µM in the experiment on HS 578T breast, 0.693 µM in the experiment with T-47D breast and above 100 µM with MDA-MB-231 breast.
On to `O=C(Cl)C1=C(c2ccccc2)C1c1ccccc1` (stereo not drawn), for which the TGI in the experiment on MCF7 breast, in the experiment on HS 578T breast, with T-47D breast and with MDA-MB-231 breast was above 100 µM throughout.
In the case of `CCN(CC)c1ccc(/C=C/C2=[N+](C)c3ccccc3C2(C)C)c(C)c1`, the GI50 in the experiment on NCI/ADR-RES ovarian is 2.24 µM; with MCF7 breast it was 0.0574 µM; with HS 578T breast, 0.129 µM; in the experiment with T-47D breast, below 0.0272 µM; in the experiment with MDA-MB-231 breast it was 0.101 µM. Besides, the TGI with NCI/ADR-RES ovarian amounted to 13 µM; in the experiment on MCF7 breast, 1.62 µM; with HS 578T breast it was 16.5 µM; with T-47D breast, 1.61 µM; in the experiment on MDA-MB-231 breast, 2.27 µM.
For the compound `COc1ccc(C(=O)c2nc3ccccc3n2CC(=O)c2ccc(Cl)cc2)cc1`, the GI50 in the experiment on NCI/ADR-RES ovarian is 1.2 µM; in the experiment on MCF7 breast, 2.1 µM; with HS 578T breast it was 2.49 µM; in the experiment on T-47D breast, 3.65 µM; in the experiment with MDA-MB-231 breast, 15.6 µM. In addition, the TGI is above 21.3 µM with NCI/ADR-RES ovarian; above 100 µM in the experiment on MCF7 breast; 12.4 µM in the experiment with HS 578T breast; above 100 µM in the experiment with T-47D breast; above 100 µM in the experiment with MDA-MB-231 breast.
`C=CC1=C(C)C2=NC1=CC1=NC(=CC3=C(C)C4=C(O)[C@H](C(=O)OC)C(=C5NC(=C2)[C@@H](C)[C@@H]5CCC(=O)O)C4=N3)C(CC)=C1C`: the TGI in the experiment with NCI/ADR-RES ovarian is above 22.1 µM; in the experiment on MCF7 breast it was 11 µM; with HS 578T breast it was above 100 µM; in the experiment with T-47D breast, 62.4 µM; with MDA-MB-231 breast, above 60.5 µM.
For `COC(=O)c1ccc2c(c1)C(=O)c1c-2n(CCCN=[N+]=[N-])c(=O)c2cc([N+](=O)[O-])ccc12`, the GI50 with NCI/ADR-RES ovarian is above 100 µM; with MCF7 breast it was above 100 µM; in the experiment on HS 578T breast, 42.6 µM; in the experiment on T-47D breast, above 100 µM; in the experiment with MDA-MB-231 breast it was 58 µM. In addition, the TGI in the experiment on NCI/ADR-RES ovarian, in the experiment on MCF7 breast, in the experiment on HS 578T breast, in the experiment on T-47D breast and with MDA-MB-231 breast was above 100 µM in each case.
With `CSc1ccc(N(C)c2nc(C)nc3c2CCC3)cc1`, the GI50 in the experiment with NCI/ADR-RES ovarian, with MCF7 breast, in the experiment on HS 578T breast and with MDA-MB-231 breast was below 0.01 µM in each case. Besides, the TGI with NCI/ADR-RES ovarian is 12.6 µM; in the experiment with MCF7 breast it was above 100 µM; in the experiment on HS 578T breast, above 100 µM; with MDA-MB-231 breast it was 72.4 µM.
In the case of `C/C1=C\CC[C@@](C)(O)[C@@H]2C[C@H](CC/C(C)=C/CC1)C1(CC1)C(=O)O2`, the GI50 in the experiment with NCI/ADR-RES ovarian was 28.3 µM; in the experiment with MCF7 breast it was 66.9 µM; in the experiment with HS 578T breast it was 22.1 µM; in the experiment on T-47D breast, 16.7 µM; in the experiment with MDA-MB-231 breast it was 13.6 µM. Also, the TGI in the experiment on NCI/ADR-RES ovarian is above 100 µM; in the experiment with MCF7 breast, above 100 µM; in the experiment with HS 578T breast, 60 µM; with T-47D breast, 67.2 µM; in the experiment on MDA-MB-231 breast it was 32.6 µM.
As for `CC(=Nc1ccc(S(N)(=O)=O)cc1)c1c(O)[nH]c2ccccc12`, the GI50 in the experiment on NCI/ADR-RES ovarian was above 25 µM; in the experiment with MCF7 breast it was above 17.5 µM; in the experiment on HS 578T breast, above 25 µM; in the experiment on T-47D breast, above 8.37 µM; with MDA-MB-231 breast it was above 25 µM. The TGI in the experiment with NCI/ADR-RES ovarian, in the experiment with MCF7 breast, in the experiment with HS 578T breast, with T-47D breast and in the experiment on MDA-MB-231 breast was above 25 µM in each case.
Regarding `Cc1ccc(-n2nc(C(C)(C)C)cc2NC(=O)NCc2cc(F)ccc2Oc2ccc3c(cnn3CCO)c2)cc1`, the GI50 was > 10 µM and 7.5 µM in the experiment with NCI/ADR-RES ovarian; 3.55 µM and 3.26 µM in the experiment with MCF7 breast; > 10 µM and 10.1 µM in the experiment with HS 578T breast; 3.79 µM and 3.76 µM in the experiment on T-47D breast; 2.6 µM and 2.57 µM in the experiment with MDA-MB-231 breast. Moreover, the TGI in the experiment on NCI/ADR-RES ovarian is above 100 µM; with MCF7 breast, > 10 µM and 51.7 µM; with HS 578T breast, above 100 µM; in the experiment with T-47D breast it was > 10 µM and 32.7 µM; in the experiment on MDA-MB-231 breast, above 58.9 µM.

For the origin of these results see PubChem BioAssay (NCI).
